# Where “and” joins values, the source holds several entries; their conditions need not be identical. Equal entries are not always repeated. Where two headings read alike, the source gives them in different places.
# Tests used:
# H460 cells = assay: CCK-8 antiproliferation assay, H460; conditions: given as fraction, Repeat 1-3; for Inhibitory efficacy: H460 cells
# Procedure: The compounds were dissolved in DMSO to make a 20 μM stock solution and diluted to the concentration of working solutions with complete growth medium before administration.
# Cells were seeded in 96-well plates: 3,000–5,000 cells/well in 100 ul. One day after seeding, the test compounds at concentration between 1.0 and 16.0 μ M or 0.1% DMSO (as control) were added to cells in triplicate. 48 h later, CCK-8 was added and incubated the plate for 1–4 h in the incubator. The absorbance at 450 nm were measured using a microplate reader (Bio-Tek).
# [1] = system: EGFR phosphorylation (Tyr1068) in PC-9 cells; assay: Western blot, p-EGFR/EGFR in PC-9; conditions: for p-EGFR/EGFR: band density ratio; for p-EGFR/EGFR relative to DMSO: ratio normalised to DMSO = 1
# Procedure: (§1) We also performed western blot analysis to evaluate the impact of e4 and e12 on EGFR signaling in PC-9 and H460 cells.
# (§2) H460 cells were seeded in six-well plates with serum-free medium overnight, and then treated complete medium containing 0.1% DMSO, various concentrations (0.1, 1 and 10 μM) of either compound e4 or e12 for 2 h, respectively. […] Then the H460 cells were treated with complete medium containing EGF (10 ng/ml) for 5 min. Then the cells were harvested and washed with PBS, centrifuged, resuspended in 100–200 μl of RIPA lysis buffer containing Protease and Phosphatase Inhibitor Cocktail (1X), and then centrifuged for 5 min at 12,000 rpm at 4°C. The supernatant was used for protein analysis. […] Then the membrane was washed 5 min (X3) and incubated at 1:3,000 dilution of anti-rabbit secondary antibodies or 1:1,000 dilution of anti-mouse secondary antibodies for 1 h at RT. After washing with TBST 5 min (X3), protein bands were developed by chemiluminescence. The protein levels were quantified by the gray values of the bands in the resulting images by ImageJ, and the control group was used as the standard. […] The PC-9 cells were harvested and analyzed as above.
# PC-9 cells = assay: Annexin V/PI flow cytometry for cell apoptosis, PC-9; format: cell-based, human; parameters: key to Apoptosis (sum of Q2 and Q3) / Apoptosis, Average: % apoptotic cells (Annexin V/PI flow cytometry); conditions: for Apoptosis, Average / Apoptosis (sum of Q2 and Q3) / Lymphocytes/Q2: FITC-A+ , PI-A+ Freq. of Parent / Lymphocytes/Q3: FITC-A+ , PI-A- Freq. of Parent: PC-9, 48h; for Apoptosis, Average: average of three repeats; for Apoptosis (sum of Q2 and Q3): single repeats (Repeat 1-3); for Lymphocytes/Q2: FITC-A+ , PI-A+ Freq. of Parent / Lymphocytes/Q3: FITC-A+ , PI-A- Freq. of Parent: single runs
# Procedure: To establish whether the antiproliferative efficacy is associated with apoptosis, PC-9 and H460 cells were treated with compound e4 or e12 of various concentrations (4, 8 and 12 μM) for 48 h, and then assessed with flow cytometry.
# Cell-apoptosis analysis was carried out by flow cytometry using the Annexin V/PI apoptosis kit according to the manufacturer’s manual. Briefly, PC-9 or H460 (3 × 10^4–5 × 10^4/well) cells were seeded in 12-well plates for 24 h, and then treated with 0.1% DMSO (as control) or various concentrations of compound e4 or e12 for 48 h, respectively. Cells were harvested, washed with PBS, and then incubated with 100ul of 1X Annexin V binding buffer containing 1 μl PI and 1 μl FITC Annexin V for 15 min at RT in the dark. 200 µl of 1X binding buffer were added to each tube for flow cytometry analysis (BD LSRFortessa™ Flow Cytometer). The percentages of apoptotic cells were analyzed using FlowJo soft.
# [2] = system: EGFR phosphorylation (Tyr1068) in H460 cells; assay: Western blot, p-EGFR/EGFR in H460; conditions: for p-EGFR/EGFR: band density ratio; for p-EGFR/EGFR relative to DMSO: ratio normalised to DMSO
# Procedure: as §1, §2
# A549 cells = assay: CCK-8 antiproliferation assay, A549; conditions: for Inhibitory efficacy: A549 cells
compound,measurement,setting,value
"COCCOc1cc2ncnc(Nc3cccc(-c4cn(-c5ccc(C)cc5)nn4)c3)c2cc1OCCOC [e12, [6,7-Bis-(2-methoxy-ethoxy)-quinazolin-4-yl]-[3-(1-p-tolyl-1H-[1,2,3]triazol-4-yl)-phenyl]-amine]",Inhibitory efficacy,H460 cells; 1uM,0.2117 and 0.1598
same,Inhibitory efficacy,H460 cells; 2uM,0.3397 and 0.3411
same,Inhibitory efficacy,H460 cells; 4uM,0.5452 and 0.4421
same,Inhibitory efficacy,H460 cells; 8uM,0.667 and 0.5743
same,Inhibitory efficacy,H460 cells; 16uM,0.9091 and 0.887
same,inhibition at 1 µM,"H460 cells; Homo sapiens, NCI-H460, read-out: Inhibitory efficacy, H460 cells, 1uM",16.7%
same,inhibition at 2 µM,"H460 cells; Homo sapiens, NCI-H460, read-out: Inhibitory efficacy, H460 cells, 2uM",36.8%
same,inhibition at 4 µM,"H460 cells; Homo sapiens, NCI-H460, read-out: Inhibitory efficacy, H460 cells, 4uM",58.9%
same,inhibition at 8 µM,"H460 cells; Homo sapiens, NCI-H460, read-out: Inhibitory efficacy, H460 cells, 8uM",65.1%
same,inhibition at 16 µM,"H460 cells; Homo sapiens, NCI-H460, read-out: Inhibitory efficacy, H460 cells, 16uM",88.9%
same,p-EGFR/EGFR,"[1]; PC-9, 0.1 uM",1.065
same,p-EGFR/EGFR relative to DMSO,"[1]; PC-9, 0.1 uM",0.9518
same,p-EGFR/EGFR,"[1]; PC-9, 1 uM",0.9522
same,p-EGFR/EGFR relative to DMSO,"[1]; PC-9, 1 uM",0.8509
same,p-EGFR/EGFR,"[1]; PC-9, 10 uM",0.4177
same,p-EGFR/EGFR relative to DMSO,"[1]; PC-9, 10 uM",0.3732
same,phosphorylation of EGFR (western blot),"[1]; PC-9, especially at 10 μM",suppressed
same,cell apoptosis (flow cytometry),"PC-9 cells; PC-9, 4, 8 and 12 μM, 48 h",significant cell apoptosis
same,"Apoptosis, Average",PC-9 cells; 4uM,13.94
same,Apoptosis (sum of Q2 and Q3),PC-9 cells; 4uM,15.01 and 16.36 and 10.45
same,"Lymphocytes/Q2: FITC-A+ , PI-A+ Freq. of Parent",PC-9 cells; 4uM,14.50% and 15.4% and 9.81%
same,"Lymphocytes/Q3: FITC-A+ , PI-A- Freq. of Parent",PC-9 cells; 4uM,0.51% and 0.96% and 0.64%
same,"Apoptosis, Average",PC-9 cells; 8uM,12.92
same,Apoptosis (sum of Q2 and Q3),PC-9 cells; 8uM,13.98 and 12.64 and 12.13
same,"Lymphocytes/Q2: FITC-A+ , PI-A+ Freq. of Parent",PC-9 cells; 8uM,12.60% and 10.6% and 10.7%
same,"Lymphocytes/Q3: FITC-A+ , PI-A- Freq. of Parent",PC-9 cells; 8uM,1.38% and 2.04% and 1.43%
same,"Apoptosis, Average",PC-9 cells; 12uM,29.21
same,Apoptosis (sum of Q2 and Q3),PC-9 cells; 12uM,24.77 and 29.39 and 33.48
same,"Lymphocytes/Q2: FITC-A+ , PI-A+ Freq. of Parent",PC-9 cells; 12uM,20.50% and 25.9% and 29.5%
same,"Lymphocytes/Q3: FITC-A+ , PI-A- Freq. of Parent",PC-9 cells; 12uM,4.27% and 3.49% and 3.98%
same,p-EGFR/EGFR,"[2]; H460, 0.1 uM",0.7896
same,p-EGFR/EGFR relative to DMSO,"[2]; H460, 0.1 uM",0.9489
same,p-EGFR/EGFR,"[2]; H460, 1 uM",0.75
same,p-EGFR/EGFR relative to DMSO,"[2]; H460, 1 uM",0.9013
same,p-EGFR/EGFR,"[2]; H460, 10 uM",0.166
same,p-EGFR/EGFR relative to DMSO,"[2]; H460, 10 uM",0.1995
same,phosphorylation of EGFR (western blot),"[2]; H460, especially at 10 μM",suppressed
same,Inhibitory efficacy,"A549 cells; 1uM, given as fraction, Repeat 1-3",0.1461 and 0.1139
same,Inhibitory efficacy,"A549 cells; 2uM, given as fraction, Repeat 1-3",0.3261 and 0.1967
same,Inhibitory efficacy,"A549 cells; 4uM, given as fraction, Repeat 1-3",0.4378 and 0.3806
same,Inhibitory efficacy,"A549 cells; 8uM, given as fraction, Repeat 1-3",0.5646 and 0.5114
same,Inhibitory efficacy,"A549 cells; 16uM, given as fraction, Repeat 1-3",0.7887 and 0.7821
same,IC50,"A549 cells; Homo sapiens, A549, 48 h, read-out: IC50 (μM) A549, CCK-8, 48 h, average ± SD of three independent experiments",< 10 µM
same,inhibition at 1 µM,"A549 cells; Homo sapiens, A549, read-out: Inhibitory efficacy, A549 cells, 1uM, given as fraction, Repeat 1-3",9.61%
same,inhibition at 2 µM,"A549 cells; Homo sapiens, A549, read-out: Inhibitory efficacy, A549 cells, 2uM, given as fraction, Repeat 1-3",26.8%
same,inhibition at 4 µM,"A549 cells; Homo sapiens, A549, read-out: Inhibitory efficacy, A549 cells, 4uM, given as fraction, Repeat 1-3",37.9%
same,inhibition at 8 µM,"A549 cells; Homo sapiens, A549, read-out: Inhibitory efficacy, A549 cells, 8uM, given as fraction, Repeat 1-3",51.9%
same,inhibition at 16 µM,"A549 cells; Homo sapiens, A549, read-out: Inhibitory efficacy, A549 cells, 16uM, given as fraction, Repeat 1-3",78.5%
same,IC50,"A549 cells; read-out: IC50 (μM) A549, CCK-8, 48 h, average ± SD of three independent experiments",5.91 ± 0.73 µM

# Source: paper PMC8776995 (Frontiers in Chemistry, 2022)
